Experimental data published in US9346809B2 (LEO PHARMA A/S, priority 2009, dated 2016).
Where two headings read alike, the source gives them in different places.

What was measured:
Assay type in all cases: biochemical
[1] = target: T1, JAK2 (catalytic domain, His-tag) (Homo sapiens, UniProt O60674); test: JAK kinase assay (HTRF, phosphorylation of TK substrate-biotin), JAK2; conditions: ATP at Km (4 μM)
T1 construct: All four purified enzymes contain only the catalytic domain; His (N); purchased Carna Biosciences, Inc; host or cells: baculovirus expression system
Outline: (§1)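 Catalytic-domain kinases phosphorylated 1 μM biotin-TK substrate at ATP Km (JAK1 7 μM, JAK2 4 μM, JAK3 2 μM, TYK2 13 μM) in Hepes pH 7.0 with DTT and MgCl2, for 20-30 min at RT; JAK1 and TYK2 also had 50 nM SEB. Detection was by HTRF (streptavidin-XL665/Cryptate antibody) overnight, giving EC50.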

[2] = target: T2, JAK1 (aa 850-1154, catalytic domain, GST-tag) (Homo sapiens, UniProt P23458); test: JAK kinase assay (HTRF, phosphorylation of TK substrate-biotin), JAK1; conditions: ATP at Km (7 μM)
T2 construct: JAK1 (aa 850-1154) and TYK2 (aa 871-1187) are expressed with an N-terminally fused GST-tag; GST (N); purchased Carna Biosciences, Inc; host or cells: baculovirus expression system
Outline: as §1

[3] = target: T3, TYK2 (aa 871-1187, catalytic domain, GST-tag) (Homo sapiens, UniProt P29597); test: JAK kinase assay (HTRF, phosphorylation of TK substrate-biotin), TYK2; conditions: ATP at Km (13 μM)
T3 construct: JAK1 (aa 850-1154) and TYK2 (aa 871-1187) are expressed with an N-terminally fused GST-tag; GST (N); purchased Carna Biosciences, Inc; host or cells: baculovirus expression system
T3 sequence (P29597 871-1187): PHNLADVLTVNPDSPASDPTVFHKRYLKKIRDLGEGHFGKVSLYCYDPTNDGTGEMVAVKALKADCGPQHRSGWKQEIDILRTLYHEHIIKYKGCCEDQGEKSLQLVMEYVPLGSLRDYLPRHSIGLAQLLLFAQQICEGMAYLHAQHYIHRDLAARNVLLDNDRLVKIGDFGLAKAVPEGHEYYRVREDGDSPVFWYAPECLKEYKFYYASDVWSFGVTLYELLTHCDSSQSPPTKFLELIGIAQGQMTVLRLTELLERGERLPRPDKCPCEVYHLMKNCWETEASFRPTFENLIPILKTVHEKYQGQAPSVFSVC
Outline: as §1

[4] = target: T4, JAK3 (catalytic domain, His-tag) (Homo sapiens, UniProt P52333); test: JAK kinase assay (HTRF, phosphorylation of TK substrate-biotin), JAK3; conditions: ATP at Km (2 μM)
T4 construct: All four purified enzymes contain only the catalytic domain; His (N); purchased Carna Biosciences, Inc; host or cells: baculovirus expression system
Outline: as §1

[5] = HTRF assay, read-out: JAK2 kinase inhibitory activity (EC50)
[6] = HTRF assay, read-out: JAK1 kinase inhibitory activity (EC50)
[7] = HTRF assay, read-out: TYK2 kinase inhibitory activity (EC50)
[8] = HTRF assay, read-out: JAK3 kinase inhibitory activity (EC50)
[9] = read-out: JAK2 kinase inhibitory activity (EC50 indicator)
[10] = read-out: JAK1 kinase inhibitory activity (EC50 indicator)
[11] = read-out: TYK2 kinase inhibitory activity (EC50 indicator)
[12] = read-out: JAK3 kinase inhibitory activity (EC50 indicator)
[13] = HTRF assay, read-out: JAK2 kinase inhibitory activity (EC50 indicator)
[14] = HTRF assay, read-out: JAK1 kinase inhibitory activity (EC50 indicator)
[15] = HTRF assay, read-out: TYK2 kinase inhibitory activity (EC50 indicator)
[16] = HTRF assay, read-out: JAK3 kinase inhibitory activity (EC50 indicator)

T1 sequence (O60674 849-1124 limits assumed): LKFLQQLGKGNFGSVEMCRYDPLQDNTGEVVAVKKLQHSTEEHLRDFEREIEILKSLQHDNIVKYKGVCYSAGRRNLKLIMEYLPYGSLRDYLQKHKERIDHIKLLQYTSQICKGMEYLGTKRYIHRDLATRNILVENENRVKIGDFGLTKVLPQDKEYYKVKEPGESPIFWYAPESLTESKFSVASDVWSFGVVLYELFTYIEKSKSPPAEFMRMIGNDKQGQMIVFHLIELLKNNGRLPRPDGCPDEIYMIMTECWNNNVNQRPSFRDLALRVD
T2 sequence (P23458 850-1154): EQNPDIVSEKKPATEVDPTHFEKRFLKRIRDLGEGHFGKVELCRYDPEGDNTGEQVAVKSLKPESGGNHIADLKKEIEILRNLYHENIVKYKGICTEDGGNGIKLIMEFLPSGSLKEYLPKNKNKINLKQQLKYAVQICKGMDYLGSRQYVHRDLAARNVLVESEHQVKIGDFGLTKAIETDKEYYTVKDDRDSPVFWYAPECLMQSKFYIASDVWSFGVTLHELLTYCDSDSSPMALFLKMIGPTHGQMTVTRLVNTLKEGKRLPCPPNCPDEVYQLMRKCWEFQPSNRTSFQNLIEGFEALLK
T4 sequence (P52333 822-1111 limits assumed): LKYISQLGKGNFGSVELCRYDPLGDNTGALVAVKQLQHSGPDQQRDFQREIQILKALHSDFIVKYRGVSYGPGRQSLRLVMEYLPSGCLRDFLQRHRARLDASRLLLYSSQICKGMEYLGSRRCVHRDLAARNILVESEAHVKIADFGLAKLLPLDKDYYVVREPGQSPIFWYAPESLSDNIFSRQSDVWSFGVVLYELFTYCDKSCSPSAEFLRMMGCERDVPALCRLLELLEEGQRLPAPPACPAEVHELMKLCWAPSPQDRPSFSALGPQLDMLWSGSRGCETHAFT

EC50 [1, 5]	EC50 [2, 6]	EC50 [3, 7]	EC50 [4, 8]	EC50 [1, 9]	EC50 [2, 10]	EC50 [3, 11]	EC50 [4, 12]	SMILES	further results
< 100 nM	< 100 nM	100 to 500 nM	100 to 500 nM	–	–	–	–	COCC(=S)N1CCN(c2ncnc3[nH]ccc23)CC12CC2 [Example 447, 2-Methoxy-1-[7-(7H-pyrrolo[2,3-d]pyrimidin-4-yl)-4,7-diaza-spiro[2.5]oct-4-yl]-ethanethione]	–
–	–	–	–	< 100 nM	< 100 nM	100 to 500 nM	< 100 nM	N#CC1(C(=O)N2CCN(c3ncnc4[nH]ccc34)CC23CC3)CC1 [Example 165, 1-[7-(7H-Pyrrolo[2,3-d]pyrimidin-4-yl)-4,7-diaza-spiro[2.5]octane-4-carbonyl]-cyclopropanecarbonitrile]	–
–	–	–	–	< 100 nM	< 100 nM	100 to 500 nM	100 to 500 nM	N#CCOc1cccc(C(=O)N2CCN(c3ncnc4[nH]ccc34)CC23CC3)c1 [Example 67, {3-[7-(7H-Pyrrolo[2,3-d]pyrimidin-4-yl)-4,7-diaza-spiro[2.5]octane-4-carbonyl]-phenoxy}-acetonitrile]	–
–	–	–	–	< 100 nM	< 100 nM	> 500 nM	< 100 nM	N#Cc1ccc2[nH]c(C(=O)N3C4CCC3CN(c3ncnc5[nH]ccc35)C4)cc2c1 [Example 129, 2-[3-(7H-Pyrrolo[2,3-d]pyrimidin-4-yl)-3,8-diaza-bicyclo[3.2.1]octane-8-carbonyl]-1H-indole-5-carbonitrile]	–
–	–	–	–	100 to 500 nM	100 to 500 nM	> 500 nM	100 to 500 nM	O=C(C1Cc2ccccc21)N1C2CCC1CN(c1ncnc3[nH]ccc13)C2 (stereo not drawn) [Example 132, Bicyclo[4.2.0]octa-1(6),2,4-trien-7-yl-[3-(7H-pyrrolo[2,3-d]pyrimidin-4-yl)-3,8-diaza-bicyclo[3.2.1]oct-8-yl]-methanone]	–
< 100 nM	< 100 nM	> 500 nM	< 100 nM	–	–	–	–	NS(=O)(=O)c1ccc(OCCC(=O)N2CCN(c3ncnc4[nH]ccc34)CC23CC3)cc1 [Example 452, 4-{3-Oxo-3-[7-(7H-pyrrolo[2,3-d]pyrimidin-4-yl)-4,7-diaza-spiro[2.5]oct-4-yl]-propoxy}-benzenesulfonamide]	–
< 100 nM	< 100 nM	100 to 500 nM	< 100 nM	–	–	–	–	O=C(COc1ccccc1)N1CCN(c2ncnc3[nH]ccc23)CC12CC2 [Example 442, 2-Phenoxy-1-[7-(7H-pyrrolo[2,3-d]pyrimidin-4-yl)-4,7-diaza-spiro[2.5]oct-4-yl]-ethanone]	–
–	–	–	–	–	–	–	–	COc1cc(C(=O)N2[C@@H]3CC[C@H]2CN(c2ncnc4[nH]ccc24)C3)ccc1S(N)(=O)=O [Example 390, 2-Methoxy-4-[3-(7H-pyrrolo[2,3-d]pyrimidin-4-yl)-3,8-diaza-bicyclo[3.2.1]octane-8-carbonyl]-benzenesulfonamide]	EC50 [1, 13]: < 100 nM; EC50 [2, 14]: < 100 nM; EC50 [3, 15]: < 100 nM; EC50 [4, 16]: < 100 nM
–	–	–	–	–	–	–	–	Cc1c(C(=O)N2CCN(c3ncnc4[nH]ccc34)CC23CC3)sc2ccccc12 [Example 296, (3-Methyl-benzo[b]thiophen-2-yl)-[7-(7H-pyrrolo[2,3-d]pyrimidin-4-yl)-4,7-diaza-spiro[2.5]oct-4-yl]-methanone]	EC50 [1, 13]: < 100 nM; EC50 [2, 14]: < 100 nM; EC50 [3, 15]: < 100 nM; EC50 [4, 16]: 100 to 500 nM
